Patent US20080045537A1, “Chemical Compounds” (priority 2004, published 2008)
Where two headings read alike, the source gives them in different places.

Experiments:
Assay type in all cases: cell-based
[1] = system: HIV-1 IIIB (T-tropic, CXCR4 utilizing); experiment: HOS HIV-1 infectivity assay
Method in brief: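 Cells were plated and left 24 h, after which compound was added for 1 h. Virus at about 2 million RLU per well followed, with 96 h further incubation at 37 °C, 5% CO2. Luciferase activity was then measured with Steady-Glo, and uninfected-culture viability with CellTiter-Glo.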

human CXCR4 = biological target: T1, human CXCR4 (Homo sapiens, UniProt P61073); experiment: Functional FLIPR assay (block of SDF-1 alpha induced [Ca2+]i change); settings: HEK-293 cells with human CXCR4 BacMam and Gqi5 BacMam; antagonism of SDF-1 alpha; read-out: Functional assay (pIC50) (converted)
T1 construct: expressed in transfected cells; host or cells: HEK-293 cells (stably expressing human macrophage scavenging receptor) transduced with human CXCR4 BacMam and Gqi5 BacMam baculoviruses
T1 sequence (P61073 whole entry): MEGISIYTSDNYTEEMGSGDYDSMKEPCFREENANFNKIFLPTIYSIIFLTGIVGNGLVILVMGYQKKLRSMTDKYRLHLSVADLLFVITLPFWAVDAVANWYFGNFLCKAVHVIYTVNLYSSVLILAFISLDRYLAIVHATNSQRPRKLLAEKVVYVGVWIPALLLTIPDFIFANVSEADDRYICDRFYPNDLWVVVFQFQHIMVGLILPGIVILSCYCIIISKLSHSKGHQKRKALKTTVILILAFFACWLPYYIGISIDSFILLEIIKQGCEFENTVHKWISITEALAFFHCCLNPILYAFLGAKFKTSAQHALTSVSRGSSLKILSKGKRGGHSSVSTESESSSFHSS
Experimental: Human embryonic kidney (HEK-293) cells were maintained and harvested as described above. Cells were plated in 96-well, black clear bottom, poly-lysine coated plates at a concentration of 40,000 cells per well in a final volume of 100 ul containing human CXCR4BacMam (MOI=25) and Gqi5 BacMam (MOI=12.5). The cells were incubated at 37° C., 5% CO2, 95% humidity for 24 h to allow for protein expression.
After the required incubation time the cells were washed once with 50 ul of fresh serum-free DMEM/F12 media containing probenicid. 50 ul of dye solution was then added to the cells (Calcium Plus Assay Kit Dye; Molecular Devices) was dissolved in 200 ml of the above probenicid/BSA containing media and incubated for 1 h. Cell plates were transferred to a Fluorometric Imaging Plate Reader (FLIPR). Upon addition the effect of the compounds on the change in [Ca^2+]i was examined to determine if the compounds were agonists or antagonists (ability to block SDF-1 alpha activity) at the CXCR4 receptor. IC50 values are determined and pKb values are calculated using the Leff and Dougall equation: KB=IC50/((2+([agonist]/EC50ˆb)ˆ1/b−1) Where IC50 is that defined by the antagonist concentration-response curve [agonist] is the EC80 concentration of agonist used EC50 is that defined by the agonist concentration-response curve b is the slope of the agonist concentration-response curve.

[2] = system: HIV-1 gp160 (from the HXB2 HIV strain); experiment: Cell/cell fusion assay (HEK-293 expressing HIV-1 tat, rev, gp160 with HOS hCXCR4/hCCR5/hCD4/pHIV-LTR-luciferase cells); settings: Human immunodeficiency virus 1, HXB2, HEK293, 24 h, read-out: Fusion assay (pIC50), luciferase readout after 24 h (converted)
Source text: The complete coding sequences of HIV-1 tat (GenBank Accession No. X07861) and rev (GenBank Accession No. M34378) were cloned into pcDNA3.1 expression vectors containing G418 and hygromycin resistance genes, respectively. The complete coding sequence of the HIV-1 (HXB2 strain) gp160 envelope gene (nucleotide bases 6225-8795 of GenBank Accession No. K03455) was cloned into plasmid pCRII-TOPO. The three HIV genes were additionally inserted into the baculovirus shuttle vector, pFastBacMam1, under the transcriptional control of the CMV promoter. A construction of the pHIV-I LTR containing mutated NFkB sequences linked to the luciferase reporter gene was prepared by digesting pcDNA3.1, containing the G418 resistance gene, with Nru I and Bam HI to remove the CMV promoter. LTR-luc was then cloned into the Nru I/Bam HI sites of the plasmid vector. Plasmid preparations were performed after the plasmids were amplified in Escherichia coli strain DH5-alpha. The fidelity of the inserted sequences was confirmed by double-strand nucleotide sequencing using an ABI Prism Model 377 automated sequencer.
Recombinant BacMam baculoviruses were constructed from pFastBacMam shuttle plasmids by using the bacterial cell-based Bac-to-Bac system. Viruses were propagated in Sf9 (Spodoptera frugiperda) cells cultured in Hink's TNM-FH Insect media supplemented with 10% (v/v) fetal bovine serum and 0.1% (v/v) pluronic F-68 according to established protocols.
Human osteosarcoma (HOS) cells that naturally express human CXCR4 were transfected with human CCR5, human CD4 and the pHIV-LTR-luciferase plasmid using FuGENE 6 transfection reagent. Single cells were isolated and grown under selection condition in order to generate a stable HOS (hCXCR4/hCCR5/hCD4/pHIV-LTR-luciferase) clonal cell line. The cells were maintained in Dulbeccos modified Eagles media supplemented with 10% fetal calf serum (FCS), G418 (400 ug/ml), puromycin (1 ug/ml), mycophenolic acid (40 ug/ml), xanthine (250 ug/ml) and hypoxanthine (13.5 ug/ml) to maintain a selection pressure for cells expressing the LTR-luciferase, hCCR5 and hCD4, respectively. Human embryonic kidney (HEK-293) cells stably transfected to express the human macrophage scavenging receptor (Class A, type 1; GenBank Accession No. D90187), were maintained in DMEM/F-12 media (1:1) supplemented with 10% FCS and 1.5 ug/ml puromycin. The expression of this receptor by the HEK-293 cells enhances their ability to stick to tissue culture treated plasticware.
HEK-293 cells were harvested using enzyme-free cell dissociation buffer. The cells were resuspended in DMEM/F-12 media supplemented with 10% FCS and 1.5 ug/ml and counted. Tranductions were performed by direct addition of BacMam baculovirus containing insect cell media to cells. The cells were simultaneously transduced with BacMam baculovirus expressing HIV-1 tat, HIV-1 rev and HIV-1 gp160 (from the HXB2 HIV strain). Routinely an MOI of 10 of each virus was added to the media containing the cells. 2 mM butyric acid was also added to the cells at this stage to increase protein expression in transduced cells. The cells were subsequently mixed and seeded into a flask at 30 million cells per T225. The cells were incubated at 37° C., 5% CO2, 95% humidity for 24 h to allow for protein expression.
HEK and HOS cells were harvested in DMEM/F-12 media containing 2% FCS and DMEM media containing 2% FCS, respectively, with no selection agents added. Compounds were plated as 1 ul spots in 100% DMSO on a 96-well CulturPlate plates. HOS cells (50 ul) were added first to the wells, followed immediately by the HEK cells (50 ul). The final concentration of each cell type was 20,000 cells per well. Following these additions, the cells were returned to a tissue culture incubator (37° C.; 5% CO2/95% air) for an additional 24 h.
Following the 24 h incubation, total cellular luciferase activity was measured using the LucLite Plus assay kit (Packard, Meridien, Conn.). […]

[3] = Compound cytotoxicity in the absence of virus addition (CellTiter-Glo); settings: human; non-infected HOS cultures; read-out: Cytotox (pIC50) (converted)
Experimental: Compounds were profiled against two HIV-1 viruses, the M-tropic (CCR5 utilizing) Ba-L strain and the T-tropic (CXCR4 utilizing) IIIB strain. Both viruses were propagated in human peripheral blood lymphocytes. Compounds were tested for there ability to block infection of the HOS cell line (expressing hCXCR4/hCCR5/hCD4/pHIV-LTR-luciferase) by either HIV-1 Ba-L or HIV-1 IIIB. Compound cytotoxicity was also examined in the absence of virus addition.
HOS cells (expressing hCXCR4/hCCR5/hCD4/pHIV-LTR-luciferase) were harvested and diluted in Dulbeccos modified Eagles media supplemented with 2% FCS and non-essential amino acid to a concentration of 60,000 cells/ml. The cells were plated into 96-well plates (100 ul per well) and the plates were placed in a tissue culture incubator (37° C.; 5% CO2/95% air) for a period of 24 h.
Subsequently, 50 ul of the desired drug solution (4 times the final concentration) was added to each well and the plates were returned to the tissue culture incubator (37° C.; 5% CO2/95% air) for 1 h. Following this incubation 50 ul of diluted virus was added to each well (approximately 2 million RLU per well of virus). The plates were returned to the tissue culture incubator (37° C.; 5% CO2/95% air) and were incubated for a further 96 h.
Following this incubation the endpoint for the virally infected cultures was quantified following addition of Steady-Glo Luciferase assay system reagent (Promega, Madison, Wis.). Cell viability or non-infected cultures was measured using a CellTiter-Glo luminescent cell viability assay system (Promega, Madison, Wis.). All luminescent readouts are performed on a Topcount luminescence detector (Packard, Meridien, Conn.).

[4] = Human immunodeficiency virus 1, IIIB, as determined by the infectivity assay, strain not stated in Table 2, read-out: Activity Level
[5] = Human immunodeficiency virus 1, HIV-1 IIIB, HOS cells, 96 h, luciferase readout, read-out: HOS (3B)

Row | Structure (SMILES) | IC50 [1, 4] [nM] | IC50 [1, 5] [nM] | IC50 (human CXCR4) [nM] | IC50 [2] [nM] | IC50 at 96 h [3] [nM] | IC50 ([1]; as determined by the infectivity assay, strain not stated in Table 2, read-out: Activity Level) [nM]
1 | CN(Cc1nc2cc(CNCC3CCNCC3)ccc2[nH]1)C1CCCc2cccnc21 (centres unmarked) [Example 19, N-Methyl-N-[(5-{[(4-piperidinylmethyl)amino]methyl}-1H-benzimidazol-2-yl)methyl]-5,6,7,8-tetrahydro-8-quinolinamine] | 100 to 500 | 167 | 251 | 501 | > 100000 | 
2 | CN(Cc1nc2c(C(=O)N3CCNCC3)cccc2n1C)C1CCCc2cccnc21 (centres unmarked) [Example 10, N-Methyl-N-{[1-methyl-4-(1-piperazinylcarbonyl)-1H-benzimidazol-2-yl]methyl}-5,6,7,8-tetrahydro-8-quinolinamine] | 500 to 10000 | 840 | 1410 | 1910 | > 100000 | 
3 | CN(Cc1nc2c(C(=O)N3CCC(N)C3)cccc2[nH]1)C1CCCc2cccnc21 (centres unmarked) [Example 31, N-({4-[(3-Amino-1-pyrrolidinyl)carbonyl]-1H-benzimidazol-2-yl}methyl)-N-methyl-5,6,7,8-tetrahydro-8-quinolinamine] |  | 22 | 12.3 | 49 | > 100000 | < 100
4 | CN(Cc1nc2cccc(C(=O)NCCc3c[nH]cn3)c2n1C)C1CCCc2cccnc21 (centres unmarked) [Example 7, N-[2-(1H-Imidazol-4-yl)ethyl]-1-methyl-2-{[methyl(5,6,7,8-tetrahydro-8-quinolinyl)amino]methyl}-1H-benzimidazole-7-carboxamide] | < 100 | 8 | 8.51 | 55 | > 100000 | 
5 | CN(Cc1nc2c(C(N)=O)cccc2[nH]1)C1CCCc2cccnc21 (centres unmarked) [Example 25, 2-{[Methyl(5,6,7,8-tetrahydro-8-quinolinyl)amino]methyl}-1H-benzimidazole-4-carboxamide] | 100 to 500 | 143 | 174 | 275 | > 100000 | 
6 | CCN(Cc1nc2cc(C(=O)NCCN)ccc2[nH]1)C1CCCc2cccnc21 (centres unmarked) [Example 14, N-(2-Aminoethyl)-2-{[ethyl(5,6,7,8-tetrahydro-8-quinolinyl)amino]methyl}-1H-benzimidazole-5-carboxamide] | 100 to 500 | 440 | 339 | 2570 | > 100000 | 
7 | CCN(Cc1nc2cccc(C(=O)NCCCCN)c2[nH]1)C1CCCc2cccnc21 (centres unmarked) [Example 16, N-(4-Aminobutyl)-2-{[ethyl(5,6,7,8-tetrahydro-8-quinolinyl)amino]methyl}-1H-benzimidazole-4-carboxamide] | 100 to 500 | 238 | 288 | 724 | > 100000 | 
8 | CN(Cc1nc2cc(CNCCCN)ccc2[nH]1)C1CCCc2cccnc21 (centres unmarked) [Example 18, N-[(2-{[Methyl(5,6,7,8-tetrahydro-8-quinolinyl)amino]methyl}-1H-benzimidazol-5-yl)methyl]-1,3-propanediamine] | 100 to 500 | 160 | 151 | 468 | > 100000 | 
9 | CN(Cc1nc2c(C(=O)NCCc3c[nH]cn3)cccc2n1C)C1CCCc2cccnc21 (centres unmarked) [Example 9, N-[2-(1H-Imidazol-4-yl)ethyl]-1-methyl-2-{[methyl(5,6,7,8-tetrahydro-8-quinolinyl)amino]methyl}-1H-benzimidazole-4-carboxamide] | < 100 | 56 | 91.2 | 75.9 | > 100000 | 
10 | CN1CCN(c2cccc3nc(CN(C)C4CCCc5cccnc54)[nH]c23)CC1 (centres unmarked) [Example 35, N-methyl-N-{[4-(4-methyl-1-piperazinyl)-1H-benzimidazol-2-yl]methyl}-5,6,7,8-tetrahydro-8-quinolinamine] | < 100 | 1.6 | 5.89 | 0.389 | > 100000 | 
